Where a name gives a salt, the structure may show the parent alone.
Molecular target: T1, recombinant guanylate cyclase reporter cell line (Rattus norvegicus, UniProt P19686+P20595)
T1 construct: expressed in transfected cells
T1 sequence (P20595 1-619): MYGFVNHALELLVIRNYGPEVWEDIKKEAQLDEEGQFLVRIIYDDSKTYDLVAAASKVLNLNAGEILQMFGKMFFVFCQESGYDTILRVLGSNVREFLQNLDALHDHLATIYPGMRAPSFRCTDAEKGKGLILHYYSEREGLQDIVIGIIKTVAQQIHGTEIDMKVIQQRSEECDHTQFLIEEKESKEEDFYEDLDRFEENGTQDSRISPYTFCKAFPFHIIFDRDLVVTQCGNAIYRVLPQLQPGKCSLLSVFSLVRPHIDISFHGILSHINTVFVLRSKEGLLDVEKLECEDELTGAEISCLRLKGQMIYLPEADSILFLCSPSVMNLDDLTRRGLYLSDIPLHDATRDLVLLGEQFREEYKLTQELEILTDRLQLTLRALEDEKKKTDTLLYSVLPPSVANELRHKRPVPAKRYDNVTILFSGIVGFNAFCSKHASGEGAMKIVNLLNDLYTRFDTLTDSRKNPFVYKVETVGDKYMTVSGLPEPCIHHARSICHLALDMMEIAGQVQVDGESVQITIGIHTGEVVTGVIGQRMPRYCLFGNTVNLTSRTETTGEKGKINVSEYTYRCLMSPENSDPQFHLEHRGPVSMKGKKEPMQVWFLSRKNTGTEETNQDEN
T1 sequence (P19686 1-690): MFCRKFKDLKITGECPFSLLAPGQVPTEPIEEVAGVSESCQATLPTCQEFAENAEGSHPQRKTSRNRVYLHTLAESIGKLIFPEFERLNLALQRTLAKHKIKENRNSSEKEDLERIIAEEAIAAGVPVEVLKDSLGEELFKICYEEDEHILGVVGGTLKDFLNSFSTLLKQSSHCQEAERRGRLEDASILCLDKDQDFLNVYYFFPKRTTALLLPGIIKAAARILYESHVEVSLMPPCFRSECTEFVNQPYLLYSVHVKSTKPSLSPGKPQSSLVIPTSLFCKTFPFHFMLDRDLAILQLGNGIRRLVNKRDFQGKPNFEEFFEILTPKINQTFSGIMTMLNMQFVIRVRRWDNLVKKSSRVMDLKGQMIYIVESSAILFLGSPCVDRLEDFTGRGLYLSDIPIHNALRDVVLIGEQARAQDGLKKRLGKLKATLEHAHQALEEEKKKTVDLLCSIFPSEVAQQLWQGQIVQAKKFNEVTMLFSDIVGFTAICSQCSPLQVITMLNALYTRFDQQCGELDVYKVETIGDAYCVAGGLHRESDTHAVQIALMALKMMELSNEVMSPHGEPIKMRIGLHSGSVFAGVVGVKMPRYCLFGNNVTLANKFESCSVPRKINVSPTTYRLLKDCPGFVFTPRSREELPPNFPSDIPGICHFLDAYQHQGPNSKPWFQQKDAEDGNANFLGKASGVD
Test: B-2. Action on recombinant guanylate cyclase reporter cell line
Format: cell-based
Conditions: MEC = minimal effective concentration; in some cases mean values from individual determinations
Method in brief: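 Reported value is the minimal effective concentration (MEC), in some cases a mean of single runs, taken from a recombinant rat guanylate cyclase reporter cell line.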

Row | SMILES | MEC [µM]
1 | Cc1nc2c(OCc3c(F)cccc3F)cccn2c1C(=O)NCC(N)CC(F)(F)F (single isomer, unassigned) [Example 127, ent-N-(2-Amino-4,4,4-trifluorobutyl)-8-[(2,6-difluorobenzyl)oxy]-2-methylimidazo[1,2-a]pyridine-3-carboxamide] | 1.00
2 | COc1ccc(F)c(COc2cc(C)cn3c(C(=O)NCC(C)(N)CF)c(C)nc23)c1F (stereo not drawn) [Example 361, ent-N-(2-amino-3-fluoro-2-methylpropyl)-8-[(2,6-difluoro-3-methoxybenzyl)oxy]-2,6-dimethylimidazo[1,2-a]pyridine-3-carboxamide] | 1.00
3 | Cc1cc(OCc2c(F)cccc2F)c2nc(C)c(C(=O)NCCN3C[C@@H](C)O[C@@H](C)C3)n2c1 [Example 167, 8-[(2,6-difluorobenzyl)oxy]-N-{2-[(2R,6S)-2,6-dimethylmorpholin-4-yl]ethyl}-2,6-dimethyl-imidazo[1,2-a]pyridine-3-carboxamide] | 1.00
4 | CCCC(C)(N)CNC(=O)c1cnc2c(OCc3c(F)cccc3F)cccn12 (stereo not drawn) [Example 354, ent-N-(2-amino-2-methylpentyl)-8-[(2,6-difluorobenzyl)oxy]imidazo[1,2-a]pyridine-3-carboxamide] | 3.00
5 | Cc1cc(OCc2c(F)cccc2F)c2nc(C)c(C(=O)NCC(C)(N)CCO)n2c1 (racemic) [Example 270, rac-N-(2-Amino-4-hydroxy-2-methylbutyl)-8-[(2,6-difluorobenzyl)oxy]-2,6-dimethylimidazo[1,2-a]pyridine-3-carboxamide] | 1.00
6 | Cc1cc(OCc2c(F)cccc2F)c2nc(C)c(C(=O)NCC(C)N3CCOCC3)n2c1 (single isomer, unassigned; ent-8) [Example 187, ent-8-[(2,6-Difluorobenzyl)oxy]-2,6-dimethyl-N-[2-(morpholin-4-yl)propyl]imidazo[1,2-a]-pyridine-3-carboxamide] | 0.30
7 | Cc1nc2c(OCc3c(F)cccc3F)cc(Cl)cn2c1C(=O)NCCN1CCN(C(C)C)CC1 [Example 152, 6-chloro-8-[(2,6-difluorobenzyl)oxy]-N-[2-(4-isopropylpiperazin-1-yl)ethyl]-2-methyl-imidazo[1,2-a]pyridine-3-carboxamide] | 1.00
8 | Cc1cc(OCc2c(F)cccc2F)c2nc(C)c(C(=O)NC3CCC3N)n2c1 (single isomer, unassigned; enantiomer b) [Example 329, ent-N-(2-aminocyclobutyl)-8-[(2,6-difluorobenzyl)oxy]-2,6-dimethylimidazo[1,2-a]pyridine-3-carboxamide (Enantiomer B)] | 0.30
9 | Cc1nc2c(OCc3c(F)cccc3F)cc(Cl)cn2c1C(=O)NCC(C)(C)N [Example 73, N-(2-Amino-2-methylpropyl)-6-chloro-8-[(2,6-difluorobenzyl)oxy]-2-methylimidazo[1,2-a]-pyridine-3-carboxamide] | 0.30
10 | Cc1nc2c(OCC3CCCCC3)cccn2c1C(=O)NC(CN)c1ccc(F)c(F)c1 (single isomer, unassigned) [Example 179, ent-N-[2-Amino-1-(3,4-difluorophenyl)ethyl]-8-(cyclohexylmethoxy)-2-methylimidazo[1,2-a]-pyridine-3-carboxamide] | 1.00
11 | Cc1nc2c(OCc3c(F)cc(F)cc3F)cccn2c1C(=O)NC(CN)c1ccc(F)c(F)c1 (stereo not drawn) [Example 101, ent-N-[2-amino-1-(3,4-difluorophenyl)ethyl]-2-methyl-8-[(2,4,6-trifluorobenzyl)oxy] imidazo[1,2-a]pyridine-3-carboxamide] | 1.00
12 | CCC(C)(N)CNC(=O)c1c(C)nc2c(OCc3c(F)cccc3F)cc(Cl)cn12 (single isomer, unassigned) [Example 195, ent-N-(2-Amino-2-methylbutyl)-6-chloro-8-[(2,6-difluorobenzyl)oxy]-2-methylimidazo[1,2-a]-pyridine-3-carboxamide] | 0.30
13 | Cc1cc(OCc2c(F)cccc2F)c2nc(C)c(C(=O)NC(CN)c3ccc4ccccc4c3)n2c1 (racemic) [Example 379, rac-N-[2-amino-1-(2-naphthyl)ethyl]-8-[(2,6-difluorobenzyl)oxy]-2,6-dimethylimidazo[1,2-a]pyridine-3-carboxamide] | 1.00
14 | Cc1cc(OCc2c(F)cccc2F)c2nc(C)c(C(=O)NC3CC(C)(C)C3N)n2c1 (mixture of isomers) [Example 358, N-(2-amino-3,3-dimethylcyclobutyl)-8-[(2,6-difluorobenzyl)oxy]-2,6-dimethylimidazo[1,2-a]pyridine-3-carboxamide Formate (Isomer Mixture)] | 0.30
15 | COCC(C)(N)CNC(=O)c1c(C)nc2c(OCc3c(F)cccc3F)cccn12 (racemic) [Example 213, rac-N-(2-Amino-3-methoxy-2-methylpropyl)-8-[(2,6-difluorobenzyl)oxy]-2-methylimidazo[1,2-a]-pyridine-3-carboxamide] | 1.00

The remaining lines, values ahead:

Row | MEC [µM] | SMILES
16 | 3.00 | Cc1cc(OCc2c(F)cccc2F)c2nc(C)c(C(=O)NCC(N)c3cnn(C)c3)n2c1 (racemic) [Example 370, rac-N-[2-amino-2-(1-methyl-1H-pyrazol-4-yl)ethyl]-8-[(2,6-difluorobenzyl)oxy]-2,6-dimethylimidazo[1,2-a]pyridine-3-carboxamide]
17 | 1.00 | Cc1nc2c(OCc3c(F)cccc3F)cc(Cl)cn2c1C(=O)NCCCN [Example 37, N-(3-aminopropyl)-6-chloro-8-[(2,6-difluoro-benzyl)oxy]-2-methylimidazo[1,2-a]pyridine-3-carboxamide]
18 | 0.30 | COCC(N)CNC(=O)c1c(C)nc2c(OCc3c(F)cccc3F)cc(C)cn12 (single isomer, unassigned) [Example 242, ent-N-(2-Amino-3-methoxypropyl)-8-[(2,6-difluorobenzyl)oxy]-2,6-dimethylimidazo[1,2-a]-pyridine-3-carboxamide]
19 | 1.00 | Cc1nc2c(OCc3c(F)cccc3F)cccn2c1C(=O)NCC(N)C(F)(F)C(F)F (racemic) [Example 230, rac-N-(2-Amino-3,3,4,4-tetrafluorobutyl)-8-[(2,6-difluorobenzyl)oxy]-2-methylimidazo[1,2-a]-pyridine-3-carboxamide]
20 | 1.00 | Cc1cc(OCc2c(F)cccc2F)c2nc(C)c(C(=O)NC(C)CN)n2c1 (stereo not drawn) [Example 48, ent-N-(1-Aminopropan-2-yl)-8-[(2,6-difluorobenzyl)oxy]-2,6-dimethylimidazo[1,2-a]pyridine-3-carboxamide]
21 | 0.30 | Cc1cc(OCc2c(F)cccc2F)c2nc(C)c(C(=O)NCC(C)(N)C(F)(F)F)n2c1 (single isomer, unassigned) [Example 240, ent-N-(2-Amino-3,3,3-trifluoro-2-methylpropyl)-8-[(2,6-difluorobenzyl)oxy]-2,6-dimethylimidazo-[1,2-a]pyridine-3-carboxamide]
22 | 3.00 | CCCC(C)(N)CNC(=O)c1c(C)nc2c(OCc3c(F)cccc3OC)cc(C)cn12 (racemic) [Example 351, rac-N-(2-amino-2-methylpentyl)-8-[(2-fluoro-6-methoxybenzyl)oxy]-2,6-dimethylimidazo[1,2-a]pyridine-3-carboxamide]
23 | 3.00 | COCC(CN)NC(=O)c1c(C)nc2c(OCc3c(F)cccc3F)cccn12 (single isomer, unassigned) [Example 123, ent-N-(1-Amino-3-methoxypropan-2-yl)-8-[(2,6-difluorobenzyl)oxy]-2-methylimidazo[1,2-a]-pyridine-3-carboxamide Ditrifluoroacetate]
24 | 1.00 | Cc1nc2c(OCc3c(F)cccc3F)cc(F)cn2c1C(=O)NCC(C)(C)N [Example 140, N-(2-Amino-2-methylpropyl)-8-[(2,6-difluorobenzyl)oxy]-6-fluoro-2-methylimidazo[1,2-a]-pyridine-3-carboxamide]
25 | 1.00 | Cc1nc2c(OCc3ccccc3F)cccn2c1C(=O)NC(CN)c1ccc(F)c(F)c1 (stereo not drawn) [Example 98, ent-N-[2-Amino-1-(3,4-difluorophenyl)ethyl]-8-[(2-fluorobenzyl)oxy]-2-methylimidazo[1,2-a]-pyridine-3-carboxamide]
